Assay results from PubChem BioAssay AID1963869 (Molecular Pharmacology Branch, DTP, NCI, 2024).
pIC50: −log10 of the molar value.

Tested on: KRAS patient-derived spheroids with HUVEC/MSC, viability
Experiment: Anticancer human tumor 323965-272-R-J2-PDC patient-derived pancreatic carcinoma cell line growth inhibition [KRAS2]
Settings: for pIC50: curve of first compound; for viability, T/C: stronger effect = lower value
Outline: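 Combination screen of spheroid viability in tumor-cell co-cultures with endothelial (HUVEC) and mesenchymal stem cell stroma. Each agent was tested in half-log dilutions, topping at clinical Cmax or at 10 microM without a known Cmax.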

[1] = second compound 0.1 µM, first compound 0.000316 µM
[2] = second compound 0.1 µM, first compound 0.001 µM
[3] = second compound 0.1 µM, first compound 0.00316 µM
[4] = second compound 0.1 µM, first compound 0.01 µM
[5] = second compound 0.1 µM, first compound 0.0316 µM
[6] = second compound 0.316 µM, first compound 0.000316 µM
[7] = second compound 0.316 µM, first compound 0.001 µM
[8] = second compound 0.316 µM, first compound 0.00316 µM
[9] = second compound 0.316 µM, first compound 0.01 µM
[10] = second compound 0.316 µM, first compound 0.0316 µM
[11] = second compound 1 µM, first compound 0.000316 µM
[12] = second compound 1 µM, first compound 0.001 µM
[13] = second compound 1 µM, first compound 0.00316 µM
[14] = second compound 1 µM, first compound 0.01 µM
[15] = second compound 1 µM, first compound 0.0316 µM
[16] = second compound 3.16 µM, first compound 0.000316 µM
[17] = second compound 3.16 µM, first compound 0.001 µM
[18] = second compound 3.16 µM, first compound 0.00316 µM
[19] = second compound 3.16 µM, first compound 0.01 µM
[20] = second compound 3.16 µM, first compound 0.0316 µM
[21] = second compound 10 µM, first compound 0.000316 µM
[22] = second compound 10 µM, first compound 0.001 µM
[23] = second compound 10 µM, first compound 0.00316 µM
[24] = second compound 10 µM, first compound 0.01 µM
[25] = second compound 10 µM, first compound 0.0316 µM
[26] = second compound 0.1 µM, first compound 0.1 µM
[27] = second compound 0.316 µM, first compound 0.1 µM
[28] = second compound 1 µM, first compound 0.1 µM
[29] = second compound 3.16 µM, first compound 0.1 µM
[30] = second compound 10 µM, first compound 0.1 µM
[31] = second compound 0.1 µM, first compound 0.316 µM
[32] = second compound 0.1 µM, first compound 1 µM
[33] = second compound 0.1 µM, first compound 3.16 µM
[34] = second compound 0.1 µM, first compound 10 µM
[35] = second compound 0.316 µM, first compound 0.316 µM
[36] = second compound 0.316 µM, first compound 1 µM
[37] = second compound 0.316 µM, first compound 3.16 µM
[38] = second compound 0.316 µM, first compound 10 µM
[39] = second compound 1 µM, first compound 0.316 µM
[40] = second compound 1 µM, first compound 1 µM
[41] = second compound 1 µM, first compound 3.16 µM
[42] = second compound 1 µM, first compound 10 µM
[43] = second compound 3.16 µM, first compound 0.316 µM
[44] = second compound 3.16 µM, first compound 1 µM
[45] = second compound 3.16 µM, first compound 3.16 µM
[46] = second compound 3.16 µM, first compound 10 µM
[47] = second compound 10 µM, first compound 0.316 µM
[48] = second compound 10 µM, first compound 1 µM
[49] = second compound 10 µM, first compound 3.16 µM
[50] = second compound 10 µM, first compound 10 µM
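Further: spheroids exposed to agents for 7 days.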
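Wherever viability, T/C is given: 100% = DMSO vehicle control viability.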

CC(=O)Nc1cccc(-n2c(=O)n(C3CC3)c(=O)c3c(Nc4ccc(I)cc4F)n(C)c(=O)c(C)c32)c1 + CNCc1ccccc1-c1csc(C(C)Nc2nc(C)nc3cc(OC)c(OC)cc23)c1
pIC50 (second compound 0.1 µM): 8.43
pIC50 (second compound 0.316 µM): 8.54
pIC50 (second compound 1 µM): 8.30
pIC50 (second compound 3.16 µM): 8.06
pIC50 (second compound 10 µM): > 10.00
viability, T/C (second compound 0.1 µM, first compound 0.0001 µM): 88%
viability, T/C [1]: 83.9%
viability, T/C [2]: 60.7%
viability, T/C [3]: 52.4%
viability, T/C [4]: 41.2%
viability, T/C [5]: 27.7%
viability, T/C (second compound 0.316 µM, first compound 0.0001 µM): 85.3%
viability, T/C [6]: 68.7%
viability, T/C [7]: 62.7%
viability, T/C [8]: 49%
viability, T/C [9]: 38.7%
viability, T/C [10]: 24.8%
viability, T/C (second compound 1 µM, first compound 0.0001 µM): 89.8%
viability, T/C [11]: 81.6%
viability, T/C [12]: 67.7%
viability, T/C [13]: 55.5%
viability, T/C [14]: 44%
viability, T/C [15]: 21.3%
viability, T/C (second compound 3.16 µM, first compound 0.0001 µM): 95.6%
viability, T/C [16]: 88.4%
viability, T/C [17]: 77.6%
viability, T/C [18]: 64.3%
viability, T/C [19]: 48.4%
viability, T/C [20]: 28.8%
viability, T/C (second compound 10 µM, first compound 0.0001 µM): 7.63%
viability, T/C [21]: 0.79%
viability, T/C [22]: 6.13%
viability, T/C [23]: 0.2%
viability, T/C [24]: 0.19%
viability, T/C [25]: 1.14%

CN(C)C/C=C/C(=O)Nc1cc2c(Nc3ccc(F)c(Cl)c3)ncnc2cc1O[C@H]1CCOC1 + CNCc1ccccc1-c1csc(C(C)Nc2nc(C)nc3cc(OC)c(OC)cc23)c1
pIC50 (second compound 0.1 µM): < 7.00
pIC50 (second compound 0.316 µM): < 7.00
pIC50 (second compound 1 µM): < 7.00
pIC50 (second compound 3.16 µM): < 7.00
pIC50 (second compound 10 µM): > 9.50
viability, T/C [1]: 91.6%
viability, T/C [2]: 80.5%
viability, T/C [3]: 94.3%
viability, T/C [4]: 70.6%
viability, T/C [5]: 59.6%
viability, T/C [26]: 62.7%
viability, T/C [6]: 83.8%
viability, T/C [7]: 82.1%
viability, T/C [8]: 74.3%
viability, T/C [9]: 64.2%
viability, T/C [10]: 59.2%
viability, T/C [27]: 57.8%
viability, T/C [11]: 82.3%
viability, T/C [12]: 81.4%
viability, T/C [13]: 75.2%
viability, T/C [14]: 60.6%
viability, T/C [15]: 63.3%
viability, T/C [28]: 65.1%
viability, T/C [16]: 73.8%
viability, T/C [17]: 63.7%
viability, T/C [18]: 79.1%
viability, T/C [19]: 79.6%
viability, T/C [20]: 47.2%
viability, T/C [29]: 71.9%
viability, T/C [21]: 0.21%
viability, T/C [22]: 0.21%
viability, T/C [23]: 1.04%
viability, T/C [24]: 0.21%
viability, T/C [25]: 0.2%
viability, T/C [30]: 0.78%

COC(=O)c1ccc2c(C(=Nc3ccc(N(C)C(=O)CN4CCN(C)CC4)cc3)c3ccccc3)c(O)[nH]c2c1 + CNCc1ccccc1-c1csc(C(C)Nc2nc(C)nc3cc(OC)c(OC)cc23)c1
pIC50 (second compound 0.1 µM): < 5.00
pIC50 (second compound 0.316 µM): < 5.00
pIC50 (second compound 1 µM): < 5.00
pIC50 (second compound 3.16 µM): < 5.00
pIC50 (second compound 10 µM): > 7.50
viability, T/C [5]: 94.9%
viability, T/C [26]: 90%
viability, T/C [31]: 102%
viability, T/C [32]: 94.2%
viability, T/C [33]: 95.7%
viability, T/C [34]: 89.2%
viability, T/C [10]: 90.6%
viability, T/C [27]: 88.4%
viability, T/C [35]: 97%
viability, T/C [36]: 98.2%
viability, T/C [37]: 94.3%
viability, T/C [38]: 86.5%
viability, T/C [15]: 90.3%
viability, T/C [28]: 90.8%
viability, T/C [39]: 85.7%
viability, T/C [40]: 79.6%
viability, T/C [41]: 93.7%
viability, T/C [42]: 90.4%
viability, T/C [20]: 102%
viability, T/C [29]: 105%
viability, T/C [43]: 99.6%
viability, T/C [44]: 103%
viability, T/C [45]: 90%
viability, T/C [46]: 88.6%
viability, T/C [25]: 0.33%
viability, T/C [30]: 1.26%
viability, T/C [47]: 0.33%
viability, T/C [48]: 0.3%
viability, T/C [49]: 0.44%
viability, T/C [50]: 0.35%

O=C(c1cc(Cc2n[nH]c(=O)c3ccccc23)ccc1F)N1CCN(C(=O)C2CC2)CC1 + CNCc1ccccc1-c1csc(C(C)Nc2nc(C)nc3cc(OC)c(OC)cc23)c1
pIC50 (second compound 0.1 µM): < 5.00
pIC50 (second compound 0.316 µM): < 5.00
pIC50 (second compound 1 µM): < 5.00
pIC50 (second compound 3.16 µM): 5.05
pIC50 (second compound 10 µM): > 7.50
viability, T/C [5]: 98.7%
viability, T/C [26]: 93.1%
viability, T/C [31]: 97.8%
viability, T/C [32]: 93.6%
viability, T/C [33]: 89%
viability, T/C [34]: 57.1%
viability, T/C [10]: 94.9%
viability, T/C [27]: 91%
viability, T/C [35]: 98.4%
viability, T/C [36]: 89.7%
viability, T/C [37]: 86.2%
viability, T/C [38]: 51.5%
viability, T/C [15]: 92%
viability, T/C [28]: 93.5%
viability, T/C [39]: 84.5%
viability, T/C [40]: 86.3%
viability, T/C [41]: 83.3%
viability, T/C [42]: 52.9%
viability, T/C [20]: 102%
viability, T/C [29]: 102%
viability, T/C [43]: 96.4%
viability, T/C [44]: 98.8%
viability, T/C [45]: 92.5%
viability, T/C [46]: 44.8%
viability, T/C [25]: 6.59%
viability, T/C [30]: 0.4%
viability, T/C [47]: 2.23%
viability, T/C [48]: 0.39%
viability, T/C [49]: 0.34%
viability, T/C [50]: 0.82%
